Test systems include A498 renal; BT-549 breast; HOP-62 NSCLC; IGROV1 ovarian; K-562 leukemia; LOX IMVI melanoma; OVCAR-4 ovarian; SF-539 CNS; SW-620 colon; T-47D breast.
Common to all, as to test: NCI anticancer screen, dose series, 48 h

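Five compound concentrations were applied to cells in 96-well plates for 48 hours; endpoints were derived by simple linear interpolation of the resulting dose-response curve. Here, GI50 denotes the concentration required for 50% inhibition of growth. TGI marks complete inhibition of growth.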

For `N#CC(C(=O)/C(=N/Nc1nc(=S)[nH]n1N)C(C#N)c1ccccc1)c1ccccc1` (centres undefined), the TGI in the assay on A498 renal, in the assay on BT-549 breast, in the assay on HOP-62 NSCLC, in the assay on IGROV1 ovarian, in the assay on K-562 leukemia and with LOX IMVI melanoma was greater than 100 µM throughout. Also, the TGI in the assay with OVCAR-4 ovarian, with SF-539 CNS, in the assay with SW-620 colon and in the assay on T-47D breast was greater than 100 µM in each case.

Consider `CCN1C(=O)N(CC)C2C1NC(=S)N2/N=C/C=C/c1cccs1` (centres undefined), for which the GI50 is 0.0855 µM with A498 renal; 1.2 µM in the assay on BT-549 breast; 0.414 µM with HOP-62 NSCLC; 0.569 µM in the assay on IGROV1 ovarian; 0.263 µM in the assay on K-562 leukemia; 0.55 µM in the assay on LOX IMVI melanoma. The GI50 with OVCAR-4 ovarian was 1.32 µM; in the assay on SF-539 CNS it was 0.226 µM; in the assay on SW-620 colon, 0.355 µM; with T-47D breast, 0.428 µM. The TGI with A498 renal was 0.539 µM; in the assay with BT-549 breast it was 9.09 µM; in the assay on HOP-62 NSCLC, greater than 100 µM; in the assay with IGROV1 ovarian it was greater than 100 µM; in the assay with K-562 leukemia, greater than 100 µM; with LOX IMVI melanoma, greater than 100 µM. In addition, the TGI in the assay with OVCAR-4 ovarian was greater than 100 µM; in the assay on SF-539 CNS, 0.666 µM; in the assay on SW-620 colon, greater than 100 µM; in the assay with T-47D breast, greater than 100 µM.

As to `CCCCCc1c(C)[nH]c(/C=C2\N=C(c3ccc[nH]3)C=C2CC)c1C`, the GI50 in the assay with A498 renal is less than 0.0228 µM; in the assay with BT-549 breast it was 0.0145 µM; in the assay with HOP-62 NSCLC, 0.0128 µM; in the assay with IGROV1 ovarian it was 0.0268 µM; in the assay with K-562 leukemia, less than 0.01 µM; with LOX IMVI melanoma, less than 0.01 µM. Also, the GI50 was less than 0.0176 µM in the assay with OVCAR-4 ovarian, 0.0153 µM with SF-539 CNS, less than 0.01 µM in the assay on SW-620 colon and 0.0187 µM in the assay with T-47D breast. The TGI is 0.267 µM in the assay with A498 renal; 0.17 µM with BT-549 breast; 0.0795 µM with HOP-62 NSCLC; 0.163 µM in the assay with IGROV1 ovarian; 0.176 µM in the assay on K-562 leukemia; 0.727 µM in the assay on OVCAR-4 ovarian. The TGI with SF-539 CNS turned out to be 0.172 µM; in the assay with SW-620 colon, 0.17 µM; in the assay on T-47D breast, 0.149 µM.

Take `CCCS(=O)(=O)Nc1ccc(Nc2c3ccccc3nc3ccccc23)c(OC)c1`: the TGI is 6 µM in the assay with A498 renal; 9.99 µM in the assay on BT-549 breast; 5.72 µM in the assay on HOP-62 NSCLC; 18.2 µM in the assay with IGROV1 ovarian; greater than 42.7 µM with K-562 leukemia; 4.9 µM in the assay on LOX IMVI melanoma. Besides, the TGI came out at 32.4 µM in the assay with OVCAR-4 ovarian, 4.18 µM with SF-539 CNS, 21.3 µM with SW-620 colon and 20.5 µM in the assay with T-47D breast.

For `COc1cc(NC(C)CCCN)c2nccc(C)c2c1OC` (centres undefined), the GI50 in the assay on A498 renal was 14.4 µM; in the assay on BT-549 breast it was 16 µM; in the assay on HOP-62 NSCLC it was 11.1 µM; in the assay on IGROV1 ovarian, 4.01 µM; in the assay on K-562 leukemia, 19.2 µM; with LOX IMVI melanoma, 14.7 µM. For the same molecule, the GI50 with OVCAR-4 ovarian is 2.7 µM; in the assay with SF-539 CNS it was 10.2 µM; with SW-620 colon, 3.54 µM; with T-47D breast it was 4.04 µM. Further, the TGI in the assay on A498 renal turned out to be 30 µM; in the assay on BT-549 breast, 30.2 µM; in the assay with HOP-62 NSCLC, 28 µM; in the assay on IGROV1 ovarian it was 22.7 µM; in the assay with K-562 leukemia it was 53.9 µM; in the assay on LOX IMVI melanoma, 28.7 µM. In addition, the TGI in the assay on OVCAR-4 ovarian turned out to be 10.2 µM; in the assay with SF-539 CNS, 22.5 µM; in the assay on SW-620 colon it was 15 µM; in the assay with T-47D breast, 24.1 µM.

As for `CC(=O)c1c(CBr)n([O-])c2ccccc2[n+]1=O`, the GI50 in the assay with A498 renal is 23.6 µM; with BT-549 breast, 9.61 µM; with HOP-62 NSCLC it was 15.6 µM; in the assay on IGROV1 ovarian, 13.6 µM; in the assay with K-562 leukemia it was 3.45 µM; in the assay with LOX IMVI melanoma, 10.8 µM. The GI50 in the assay on OVCAR-4 ovarian was 3.78 µM; in the assay on SF-539 CNS it was 11.2 µM; with SW-620 colon it was 2.04 µM; in the assay on T-47D breast it was 2.87 µM. Moreover, the TGI with A498 renal is 54.8 µM; in the assay with BT-549 breast it was 21.5 µM; in the assay on HOP-62 NSCLC it was 29.7 µM; in the assay with IGROV1 ovarian, 29.2 µM; in the assay on K-562 leukemia, 12.5 µM; with LOX IMVI melanoma, 23 µM. In addition, the TGI in the assay on OVCAR-4 ovarian came out at 13.2 µM; in the assay with SF-539 CNS it was 24 µM; in the assay on SW-620 colon, 4.15 µM; in the assay on T-47D breast it was 11.4 µM.

As to `O=c1[nH]c2cc(Cl)ccc2n1C1CCN(CCCC(c2ccc(F)cc2)c2ccc(F)cc2)CC1`, the GI50 in the assay on A498 renal is 1.34 µM; in the assay on BT-549 breast it was 1.32 µM; in the assay with HOP-62 NSCLC, 1.55 µM; in the assay with IGROV1 ovarian, 1.98 µM; with K-562 leukemia, 2.98 µM; in the assay with LOX IMVI melanoma, 1.56 µM. Also, the GI50 is 1.51 µM with OVCAR-4 ovarian, 1.64 µM with SF-539 CNS, 1.52 µM in the assay with SW-620 colon and 1.83 µM with T-47D breast. In addition, the TGI with A498 renal is 2.74 µM; in the assay with BT-549 breast, 2.92 µM; in the assay on HOP-62 NSCLC it was 3.05 µM; in the assay on IGROV1 ovarian, 3.87 µM; in the assay on K-562 leukemia it was greater than 100 µM; in the assay on LOX IMVI melanoma it was 2.89 µM. The TGI amounted to 2.9 µM in the assay with OVCAR-4 ovarian, 3 µM in the assay with SF-539 CNS, 2.99 µM with SW-620 colon and 3.79 µM with T-47D breast.

The values above are taken from PubChem BioAssay (NCI).
